Where a SMILES comes first, the peptide text is derived from it.
Tested on: T2 cell lines preincubated with peptide
Assay: Recognition of modified peptides by natural epitope (M9-2, G9-154, G9-209, G9-280) reactive T-cells, 51Cr release on peptide-pulsed T2 cells (Example 5)
Assay type: cell-based, human
Protocol: Assessment of antigen recognition by CTL. ^51Cr release cytotoxic assays were performed to detect the recognition of peptide and melanoma cells by CTL. To analyze peptide recognition, T2 cell lines were preincubated for 2 h at 37° C. with 1 ug/ml peptide, washed and used as target cells in a ^51Cr release cytotoxic assay. The melanoma lines 624mel was established in our laboratory (See Example 1).
In order to make more immunogenic peptides for induction of anti-melanoma T-cells than natural melanoma epitopes, a variety of peptides in which at least 1 amino acid was changed based on consensus motifs in peptides binding to a specific MHC Class I allele Falk, et al. (1991) Nature 351:290; Kubo et al. (1994) J. Immunol 152:3913; Parker, K. et al. (1992) Journal of Immunology 149:3580; Ruppert, J. et al. (1993) Cell 74:929-937) (Tables 14, 15, 16, and 17). […] By changing amino acid at the 1st, 2nd, 3rd or 9th positions which are important for HLA-A2 binding to the peptide, but less important for recognition by T-cell receptors, artificial peptides which can bind to HLA-A2.1 with higher affinity and still be recognized by natural epitope specific T-cells may be generated.

SMILES	Recognition by G9-209 reactive T-cell	Recognition by M9-2 reactive T-cell	Recognition by G9-154 reactive T-cell
CC[C@H](C)[C@H](N)C(=O)N[C@@H](CC(C)C)C(=O)N[C@@H](Cc1ccccc1)C(=O)N[C@@H](CCC(N)=O)C(=O)N[C@H](C(=O)N1CCC[C@H]1C(=O)N[C@@H](Cc1ccccc1)C(=O)N[C@@H](CO)C(=O)N[C@H](C(=O)O)C(C)C)C(C)C [G9-209-2L3F]	−		
CC[C@H](C)[C@H](NC(=O)CNC(=O)[C@H](CCSC)NC(=O)[C@@H](N)CCCCN)C(=O)NCC(=O)N[C@H](C(=O)N[C@@H](CC(C)C)C(=O)N[C@H](C(=O)N[C@H](C(=O)O)C(C)C)[C@@H](C)O)[C@@H](C)CC [M9-2-1K2M]		−	
CC[C@H](C)[C@H](NC(=O)CNC(=O)[C@@H](NC(=O)[C@H](C)N)[C@@H](C)CC)C(=O)NCC(=O)N[C@H](C(=O)N[C@@H](CC(C)C)C(=O)N[C@H](C(=O)N[C@H](C(=O)O)C(C)C)[C@@H](C)O)[C@@H](C)CC [M9-2-2I]		−	
CC[C@H](C)[C@H](NC(=O)CNC(=O)[C@H](CC(C)C)NC(=O)[C@@H](N)Cc1ccc(O)cc1)C(=O)NCC(=O)N[C@H](C(=O)N[C@@H](CC(C)C)C(=O)N[C@H](C(=O)N[C@H](C(=O)O)C(C)C)[C@@H](C)O)[C@@H](C)CC [M9-2-1Y2L]		−	
CC[C@H](C)[C@H](NC(=O)CNC(=O)[C@H](CC(C)C)NC(=O)[C@@H](N)Cc1c[nH]c2ccccc12)C(=O)NCC(=O)N[C@H](C(=O)N[C@@H](CC(C)C)C(=O)N[C@H](C(=O)N[C@H](C(=O)O)C(C)C)[C@@H](C)O)[C@@H](C)CC [M9-2-1W2L]		−	
CC[C@H](C)[C@H](NC(=O)CNC(=O)[C@H](CC(C)C)NC(=O)[C@@H](N)Cc1ccccc1)C(=O)NCC(=O)N[C@H](C(=O)N[C@@H](CC(C)C)C(=O)N[C@H](C(=O)N[C@H](C(=O)O)C(C)C)[C@@H](C)O)[C@@H](C)CC [M9-2-1F2L]		−	
CC[C@H](C)[C@H](NC(=O)CNC(=O)[C@H](C)NC(=O)[C@@H](N)Cc1ccc(O)cc1)C(=O)NCC(=O)N[C@H](C(=O)N[C@@H](CC(C)C)C(=O)N[C@H](C(=O)N[C@H](C(=O)O)C(C)C)[C@@H](C)O)[C@@H](C)CC [M9-2-1Y]		−	
CC[C@H](C)[C@H](NC(=O)CNC(=O)[C@@H](NC(=O)[C@H](Cc1ccccc1)NC(=O)[C@H](CC(C)C)NC(=O)[C@H](C)N)[C@@H](C)CC)C(=O)N[C@@H](CC(C)C)C(=O)N[C@H](C(=O)N[C@H](C(=O)O)C(C)C)[C@@H](C)O [M9-2-2L3F]		−	
CC[C@H](C)[C@H](NC(=O)CNC(=O)[C@H](CC(C)C)NC(=O)[C@@H](N)CCCCN)C(=O)NCC(=O)N[C@H](C(=O)N[C@@H](CC(C)C)C(=O)N[C@H](C(=O)N[C@H](C(=O)O)C(C)C)[C@@H](C)O)[C@@H](C)CC [M9-2-1K2L]		−	
CC[C@H](C)[C@H](N)C(=O)N[C@@H](CC(C)C)C(=O)N[C@@H](Cc1c[nH]c2ccccc12)C(=O)N[C@@H](CCC(N)=O)C(=O)N[C@H](C(=O)N1CCC[C@H]1C(=O)N[C@@H](Cc1ccccc1)C(=O)N[C@@H](CO)C(=O)N[C@H](C(=O)O)C(C)C)C(C)C [G9-209-2L3W] (H-ILWQVPFSV-OH; N-terminus and C-terminus assumed)	−		
CC[C@H](C)[C@H](NC(=O)CNC(=O)[C@@H](NC(=O)[C@@H](N)CCCCN)[C@@H](C)CC)C(=O)NCC(=O)N[C@H](C(=O)N[C@@H](CC(C)C)C(=O)N[C@H](C(=O)N[C@H](C(=O)O)C(C)C)[C@@H](C)O)[C@@H](C)CC [M9-2-1K2I]		−	
CC[C@H](C)[C@H](N)C(=O)N[C@H](C(=O)N[C@@H](Cc1ccc(O)cc1)C(=O)N[C@@H](CCC(N)=O)C(=O)N[C@H](C(=O)N1CCC[C@H]1C(=O)N[C@@H](Cc1ccccc1)C(=O)N[C@@H](CO)C(=O)N[C@H](C(=O)O)C(C)C)C(C)C)[C@@H](C)O [G9-209-3Y] (H-ITYQVPFSV-OH; N-terminus and C-terminus assumed)	−		
CC[C@H](C)[C@H](NC(=O)CNC(=O)[C@@H](NC(=O)[C@H](Cc1c[nH]c2ccccc12)NC(=O)[C@H](CC(C)C)NC(=O)[C@H](C)N)[C@@H](C)CC)C(=O)N[C@@H](CC(C)C)C(=O)N[C@H](C(=O)N[C@H](C(=O)O)C(C)C)[C@@H](C)O [M9-2-2L3W]		−	
CC[C@H](C)[C@H](N)C(=O)N[C@@H](CC(C)C)C(=O)N[C@@H](CCSC)C(=O)N[C@@H](CCC(N)=O)C(=O)N[C@H](C(=O)N1CCC[C@H]1C(=O)N[C@@H](Cc1ccccc1)C(=O)N[C@@H](CO)C(=O)N[C@H](C(=O)O)C(C)C)C(C)C [G9-209-2L3M]	−		
CC[C@H](C)[C@H](N)C(=O)N[C@H](C(=O)N[C@@H](Cc1ccccc1)C(=O)N[C@@H](CCC(N)=O)C(=O)N[C@H](C(=O)N1CCC[C@H]1C(=O)N[C@@H](Cc1ccccc1)C(=O)N[C@@H](CO)C(=O)N[C@H](C(=O)O)C(C)C)C(C)C)[C@@H](C)O [G9-209-3F] (H-ITFQVPFSV-OH; N-terminus and C-terminus assumed)	−		
CC[C@H](C)[C@H](NC(=O)CNC(=O)[C@H](C)NC(=O)[C@@H](N)Cc1c[nH]c2ccccc12)C(=O)NCC(=O)N[C@H](C(=O)N[C@@H](CC(C)C)C(=O)N[C@H](C(=O)N[C@H](C(=O)O)C(C)C)[C@@H](C)O)[C@@H](C)CC [M9-2-1W]		+ (+, recognized)	
CC[C@H](C)[C@H](N)C(=O)N[C@H](C(=O)N[C@@H](CCSC)C(=O)N[C@@H](CCC(N)=O)C(=O)N[C@H](C(=O)N1CCC[C@H]1C(=O)N[C@@H](Cc1ccccc1)C(=O)N[C@@H](CO)C(=O)N[C@H](C(=O)O)C(C)C)C(C)C)[C@@H](C)O [G9-209-3M] (H-ITMQVPFSV-OH; N-terminus and C-terminus assumed)	−		
CC[C@H](C)[C@H](N)C(=O)N[C@H](C(=O)N[C@@H](Cc1c[nH]c2ccccc12)C(=O)N[C@@H](CCC(N)=O)C(=O)N[C@H](C(=O)N1CCC[C@H]1C(=O)N[C@@H](Cc1ccccc1)C(=O)N[C@@H](CO)C(=O)N[C@H](C(=O)O)C(C)C)C(C)C)[C@@H](C)O [G9-209-3W]	−		
CC[C@H](C)[C@H](N)C(=O)N[C@@H](CC(C)C)C(=O)N[C@@H](CO)C(=O)N[C@@H](CCC(N)=O)C(=O)N[C@H](C(=O)N1CCC[C@H]1C(=O)N[C@@H](Cc1ccccc1)C(=O)N[C@@H](CO)C(=O)N[C@H](C(=O)O)C(C)C)C(C)C [G9-209-2L3S] (H-ILSQVPFSV-OH; N-terminus and C-terminus assumed)	−		
CC(C)C[C@H](NC(=O)[C@H](C)N)C(=O)N[C@@H](Cc1c[nH]c2ccccc12)C(=O)NCC(=O)N[C@@H](CCC(N)=O)C(=O)N[C@@H](Cc1ccc(O)cc1)C(=O)N[C@@H](Cc1c[nH]c2ccccc12)C(=O)N[C@@H](CCC(N)=O)C(=O)N[C@H](C(=O)O)C(C)C [G9-154-1A2L] (H-ALWGQYWQV-OH; N-terminus and C-terminus assumed)			+ (+, recognized)
CC[C@H](C)[C@H](NC(=O)CNC(=O)[C@@H](NC(=O)[C@H](Cc1c[nH]c2ccccc12)NC(=O)[C@H](C)NC(=O)[C@H](C)N)[C@@H](C)CC)C(=O)N[C@@H](CC(C)C)C(=O)N[C@H](C(=O)N[C@H](C(=O)O)C(C)C)[C@@H](C)O [M9-2-3W]		−	
CC[C@H](C)[C@H](N)C(=O)N[C@H](C(=O)N[C@@H](CO)C(=O)N[C@@H](CCC(N)=O)C(=O)N[C@H](C(=O)N1CCC[C@H]1C(=O)N[C@@H](Cc1ccccc1)C(=O)N[C@@H](CO)C(=O)N[C@H](C(=O)O)C(C)C)C(C)C)[C@@H](C)O [G9-209-3S]	−		
CC(C)[C@H](NC(=O)[C@H](CO)NC(=O)[C@H](Cc1ccccc1)NC(=O)[C@@H]1CCCN1C(=O)[C@@H](NC(=O)[C@H](CCC(N)=O)NC(=O)[C@H](CC(=O)O)NC(=O)[C@@H](NC(=O)[C@@H](N)Cc1c[nH]c2ccccc12)[C@@H](C)O)C(C)C)C(=O)O [G9-209-1W] (H-WTDQVPFSV-OH; N-terminus and C-terminus assumed)	+ (+, recognized)		
CC[C@H](C)[C@H](NC(=O)CNC(=O)[C@H](CCSC)NC(=O)[C@H](C)N)C(=O)NCC(=O)N[C@H](C(=O)N[C@@H](CC(C)C)C(=O)N[C@H](C(=O)N[C@H](C(=O)O)C(C)C)[C@@H](C)O)[C@@H](C)CC [M9-2-2M]		−	
CC[C@H](C)[C@H](N)C(=O)N[C@@H](CC(C)C)C(=O)N[C@@H](Cc1ccc(O)cc1)C(=O)N[C@@H](CCC(N)=O)C(=O)N[C@H](C(=O)N1CCC[C@H]1C(=O)N[C@@H](Cc1ccccc1)C(=O)N[C@@H](CO)C(=O)N[C@H](C(=O)O)C(C)C)C(C)C [G9-209-2L3Y] (H-ILYQVPFSV-OH; N-terminus and C-terminus assumed)	−		
CC[C@H](C)[C@H](N)C(=O)N[C@@H](CC(C)C)C(=O)N[C@@H](C)C(=O)N[C@@H](CCC(N)=O)C(=O)N[C@H](C(=O)N1CCC[C@H]1C(=O)N[C@@H](Cc1ccccc1)C(=O)N[C@@H](CO)C(=O)N[C@H](C(=O)O)C(C)C)C(C)C [G9-209-2L3A]	−		
CC[C@H](C)[C@H](N)C(=O)N[C@H](C(=O)N[C@@H](C)C(=O)N[C@@H](CCC(N)=O)C(=O)N[C@H](C(=O)N1CCC[C@H]1C(=O)N[C@@H](Cc1ccccc1)C(=O)N[C@@H](CO)C(=O)N[C@H](C(=O)O)C(C)C)C(C)C)[C@@H](C)O [G9-209-3A]	−		
